Laboratory results reported in patent publication US7666670B2, “Animal model for the fast identification of pharmaceutical active compounds in vivo” (Janssen Pharmaceutica N.V., priority 2003, dated 2010).
Where “and” joins values, the source holds several entries; their conditions need not be identical. Equal entries are not always repeated. *1 amine or outer side, *2 acyl side, *3 side chain or, on linkers, in order; H or OH if unused. Where a SMILES comes first, the peptide text is derived from it. Bridges are numbered along the chain shown (N, C = ends). Roman numbers before positions name the chains, in order. [ ]: non-standard residue; d: D form. Actinocin(9to1) = Cc1c2oc3c(C)ccc(C(=O)[*:1])c3nc-2c(C(=O)[*:2])c(N)c1=O; NMeV = CN[C@H](C(=O)O)C(C)C; Sar = CNCC(=O)O

Key:
[1] = test system: p21 1300 bp promoter fragment; test: Induction of p21 1300 bp promoter fragment (ZsGreen fluorescence) in pGL3-basic-ZsGreen-1300 transfected A2780 clones; type: cell-based, human; conditions: for Activation of the 1300 bp fragment of the p21 promoter by DNA damaging agents: dose response, clones 1 and 5 (FIG. 1); for Activation of the 1300 bp fragment of the p21 promoter by DNA damaging agents / Fold induction (fluorescence after induction divided by fluorescence of DMSO treated cells): 24 h; for Fold induction (fluorescence after induction divided by fluorescence of DMSO treated cells): Fluoroskan; for Fold induction: first screen of 80 clones, the two clones measurable with Fluoroskan
Protocol: A2780 cells were plated into a 6-well plate at a density of 2×10^5 cells, incubated for 24 hours, and transfected with 2 ug of pGL3-basic-ZsGreen-1300 and 0.2 ug of pSV2neo vector by using Lipofectamine 2000 (Invitrogen, Brussels, Belgium) as described by manufacturer. The transfected cells were selected for 10 days with G418 (Gibco-BRL, Gaithersburg, Md.) and single cell suspensions were grown. After three weeks, 80 single clones were obtained.
The A2780 transfected pool and the selected 80 clones were expanded and seeded at 10000 cells per well into 96-well plates. 24 hours after seeding, the cells were treated for an additional 24 hours with targeted compounds (affecting sp1 sites in the proximal p21 promoter region) or DNA damaging agents (affecting p53 responsive elements). Subsequently, cells were fixed with 4% PFA for 30′ and counterstained with Hoechst dye. The p21 promoter activation leading to ZsGreen production and thus fluorescence, was monitored by the Ascent Fluoroskan (Thermo Labsystems, Brussels, Belgium) and by fluorescence microscope (Zeiss).

[2] = test system: pGL3-basic-ZsGreen-1300 transfected A2780 xenograft; test: In vivo xenograft fluorescence, Automated Whole Body Imaging System; parameters: species or system nude mice
Protocol: The selected clone was injected subcutaneous (10^7 cells/200 μl) into the flank of nude mice and a calliper measurable tumor was obtained after 12 days. From day 12 on, animals were orally dosed daily during 6 days with solvent, 20 mpk Mitsui (a.k.a. MS-275—Shering—Registry Number 209783-80-2) or 40 mpk compound X (10, 10 and 4 animals respectively). Tumors were evaluated for fluorescence by the in-house developed Automated Whole Body Imaging System (Fluorescent stereomicroscope type Olympus® SZX12 equipped with a GFP filter and coupled to a CCD camera type JAI® CV-M90 controlled by a software package based on the IMAQ Vision Software from National Instruments®).

[3] = test system: tumor; conditions: PK/PD studies; cited from earlier work
[4] = test system: p53RE_tk in A2780 cells; test: Induction of p53RE_tk activity (ZsGreen fluorescence) in transfected A2780 clones; type: cell-based, human; conditions: 24 h, Fluoroskan; for Fold induction (fluorescence after induction divided by fluorescence of DMSO treated cells): A2780 clone 36, 10 ng/ml
Protocol: (§1) A2780 cells and HCT116 cells were plated into a 6-well plate at a density of 4×10^5 cells, incubated for 24 hours, and transfected with 2 ug of p53RE_TK/pGL3-basic-ZsGreen and 0.2 ug of pMC1-neo-Poly A vector by using Lipofectamine and Plus Reagent (Invitrogen, Brussels, Belgium) as described by manufacturer. The transfected cells were selected for 16 days with G418 (Gibco-BRL, Gaithersburg, Md.) and single cell suspensions were grown. After three weeks, 60 single clones were obtained from the transfected HCT116 cells and 40 single clones were obtained from the transfected A2780 cells.
(§2) The A2780 and the HCT116 transfected pool and the selected clones were expanded and seeded at 20000 cells per well into 96-well plates. 24 hours after seeding, the cells were treated for an additional 24 hours with DNA damaging agents (affecting p53 responsive elements). The p53RE_tk activation leading to ZsGreen production and thus fluorescence, was monitored by the Ascent Fluoroskan (Thermo Labsystems, Brussels, Belgium) and by fluorescence microscope (Zeiss).

[5] = test system: p53RE_tk in HCT116 cells; test: Induction of p53RE_tk activity (ZsGreen fluorescence) in transfected HCT116 clones; type: cell-based; conditions: 24 h
Protocol: as §1, §2

[6] = 20 mpk orally daily for 6 days from day 12, clone 1 and 5 xenograft, nude mice

CC[C@@]1(O)C(=O)OCc2c1cc1n(c2=O)Cc2cc3ccccc3nc2-1 [Camptothecin]
Activation of the 1300 bp fragment of the p21 promoter by DNA damaging agents [1]: not able to activate | Activation of the 1300 bp fragment of the p21 promoter by DNA damaging agents ([1]; listed as Campthotecin): non-responsivness

COc1cccc2c1C(=O)c1c(O)c3c(c(O)c1C2=O)C[C@@](O)(C(=O)CO)C[C@@H]3O[C@H]1C[C@H](N)[C@H](O)[C@H](C)O1 [Doxorubicin]
Activation of the 1300 bp fragment of the p21 promoter by DNA damaging agents [1]: not able to activate | Activation of the 1300 bp fragment of the p21 promoter by DNA damaging agents ([1]; listed as doxorubicin): non-responsivness

Nc1ccccc1NC(=O)c1ccc(CNC(=O)OCc2cccnc2)cc1 [Mitsui]
Time after administration of the first dose at which induction of ZsGreen was very clear [2, 6]: 3 days | Time after starting the treatment at which ZsGreen induction reached a plateau [2, 6]: 5 days | Basal ZsGreen expression and induction, detection by Automated Whole Body Imaging System ([2]; 20 mpk, clone 2 and 3 xenograft, nude mice): too low | Induction of fluorescence in the xenograft ([2]; after 4 days of treatment): induces fluorescence | Fold induction (fluorescence after induction divided by fluorescence of DMSO treated cells) ([1]; clone 1, 10^−6M): 2 fold and 1.8 fold | Fold induction ([1]; 10^−6, 24 h): 1.2-1.5 fold | ZsGreen production in pGL3-basic-ZsGreen-1300 transfected A2780 cells in vitro [1]: induce ZsGreen production | Compound reaches the tumor [3]: can reach the tumor | Concentration reached in the tumor [3]: high enough to stop the tumor from growing

O=C(CCCCCCC(=O)Nc1ccccc1)NO [SAHA, suberoylanilide hydroxamic acid]
ZsGreen production in pGL3-basic-ZsGreen-1300 transfected A2780 cells in vitro [1]: induce ZsGreen production

CC(/C=C/C(=O)NO)=C\[C@@H](C)C(=O)c1ccc(N(C)C)cc1 [TSA, trichostatin A]
Fold induction (fluorescence after induction divided by fluorescence of DMSO treated cells) ([1]; clone 1, 10^−7M): 5 fold | Fold induction ([1]; 10^−7, 24 h): 5 fold | ZsGreen production in pGL3-basic-ZsGreen-1300 transfected A2780 cells in vitro [1]: induce ZsGreen production

Cc1c2oc3c(C)ccc(C(=O)N[C@@H]4C(=O)N[C@H](C(C)C)C(=O)N5CCC[C@H]5C(=O)N(C)CC(=O)N(C)[C@@H](C(C)C)C(=O)O[C@@H]4C)c3nc-2c(C(=O)N[C@@H]2C(=O)N[C@H](C(C)C)C(=O)N3CCC[C@H]3C(=O)N(C)CC(=O)N(C)[C@@H](C(C)C)C(=O)O[C@@H]2C)c(N)c1=O [actinomycin D] (I: T[dV]P[Sar][NMeV] / II: T[dV]P[Sar][NMeV]; ester I:1-I:C, II:1-II:C; linker I:N-II:N via Actinocin(9to1))
Fold induction (fluorescence after induction divided by fluorescence of DMSO treated cells) [4]: 2 fold | Fold induction (fluorescence after induction divided by fluorescence of DMSO treated cells) ([4]; listed as actinomycinD): strong induction factor | Induction of fluorescence ([4]; the 2 responding A2780 clones, 10 ng/ml): at least a two fold induction | Induction of fluorescence ([5]; HCT116 clones 5 and 36, 10 ng/ml): strong induction factor | Induction of fluorescence ([5]; the 6 responding HCT116 clones, 10 ng/ml, Fluoroskan): at least a two fold induction

Bleomycin
Activation of the 1300 bp fragment of the p21 promoter by DNA damaging agents [1]: not able to activate | Activation of the 1300 bp fragment of the p21 promoter by DNA damaging agents ([1]; listed as bleomycin): non-responsivness
